Target: T1, USP28 (USP28-5(1-1077)-TEV-6*His; LifeSensors) (Homo sapiens, UniProt Q96RU2)
T1 construct: construct USP28 (USP28-5(1-1077)-TEV-6*His; LifeSensors); TEV cleavage site (C); 6xHis (C); purchased LifeSensors
T1 sequence (Q96RU2 1-1077): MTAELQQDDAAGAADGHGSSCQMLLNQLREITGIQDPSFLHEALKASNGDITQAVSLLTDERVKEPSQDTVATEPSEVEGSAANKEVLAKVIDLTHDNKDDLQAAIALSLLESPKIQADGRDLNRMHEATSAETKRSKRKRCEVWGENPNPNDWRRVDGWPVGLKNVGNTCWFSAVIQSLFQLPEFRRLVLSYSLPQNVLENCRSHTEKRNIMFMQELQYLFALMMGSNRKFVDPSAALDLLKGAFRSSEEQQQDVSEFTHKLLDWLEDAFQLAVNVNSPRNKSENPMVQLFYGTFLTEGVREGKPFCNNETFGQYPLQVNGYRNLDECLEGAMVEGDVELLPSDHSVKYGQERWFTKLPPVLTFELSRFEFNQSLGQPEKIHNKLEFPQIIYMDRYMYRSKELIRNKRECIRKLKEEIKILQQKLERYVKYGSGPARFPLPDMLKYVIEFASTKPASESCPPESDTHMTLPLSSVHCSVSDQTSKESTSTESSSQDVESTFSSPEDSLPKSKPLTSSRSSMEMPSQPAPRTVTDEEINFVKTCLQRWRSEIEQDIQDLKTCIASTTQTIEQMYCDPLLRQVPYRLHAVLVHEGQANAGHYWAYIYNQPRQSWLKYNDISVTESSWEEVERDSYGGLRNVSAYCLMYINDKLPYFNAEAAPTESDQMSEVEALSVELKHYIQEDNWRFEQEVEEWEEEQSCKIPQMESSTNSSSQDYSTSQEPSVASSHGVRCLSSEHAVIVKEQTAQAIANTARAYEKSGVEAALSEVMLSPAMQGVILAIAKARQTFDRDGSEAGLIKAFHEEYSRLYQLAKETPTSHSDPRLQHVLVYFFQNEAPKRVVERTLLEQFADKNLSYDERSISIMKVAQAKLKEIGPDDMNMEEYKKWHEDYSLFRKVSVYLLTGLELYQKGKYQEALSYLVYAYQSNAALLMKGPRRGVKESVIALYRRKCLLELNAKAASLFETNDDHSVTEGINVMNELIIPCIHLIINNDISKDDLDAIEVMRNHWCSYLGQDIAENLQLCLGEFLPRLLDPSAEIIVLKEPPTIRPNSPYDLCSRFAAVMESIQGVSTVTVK
Assay: Ubiquitin-Rhodamine 110 Assay for USP28 Activity, Example A-1(b)
Format: biochemical
Settings: Ubiquitin-Rhodamine 110 assay
Summary of the method: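 Single-point screening used 10 μM compound with 90 min room-temperature incubation; follow-up dose-responses (25 μM top, 3-fold) used 75 pM USP28 1-1077 construct, 30 min compound preincubation, 25 nM Ub-Rh110, 20 min reaction, citric acid quench. Rh110 fluorescence normalised to no-enzyme and DMSO controls; IC50 from 4-parameter logistic fit.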

| SMILES | USP28 A-1(b) IC50 range (format Example A-1(b)) | USP28 A-1(b) IC50 range (Example A-1(b)) |
| --- | --- | --- |
| Cc1ccc2c(N)c(C(=O)N[C@H]3COc4cc(N5CCNCC5)c(Cl)cc4C3)sc2n1 [Example 13-5, (R)-3-amino-N-(6-chloro-7-(piperazin-1-yl)chroman-3-yl)-6-methylthieno[2,3-b]pyridine-2-carboxamide] | + (>2 μM) | – |
| CCn1ccc2cc(C(=O)N[C@@H]3CCc4cc(N5CC6CCC(C5)N6)ccc4C3)nnc21 (single isomer, unassigned) [Example 11-23] | – | + (>2 μM) |
| Cc1ccc2c(N)c(C(=O)N[C@@H]3COc4cc(N5CCNCC5)ccc4[C@@H]3C)sc2n1 (single isomer, unassigned) [Example 11-18] | – | + (>2 μM) |
| Cc1cnc2c(N)c(C(=O)N[C@H]3COc4cc(N5CC6CNCC(C5)O6)cc(F)c4C3)sc2n1 [Example 10-12, N-((3R)-7-(9-oxa-3,7-diazabicyclo[3.3.1]nonan-3-yl)-5-fluorochroman-3-yl)-7-amino-3-methylthieno[2,3-b]pyrazine-6-carboxamide] | – | ++++ (0.001-0.05 μM) |
| Cc1nc2sc(C(=O)N[C@H]3CCc4cc(N5CC6CCC(C5)N6)ccc4C3)c(N)c2cc1F (single isomer, unassigned) [Example 11-3] | – | ++ (0.2-2 μM) |
| Cc1cnc2c(N)c(C(=O)N[C@H]3COc4cc(N5CCNCC5)cc(F)c4C3)sc2n1 [Example 10-10, (R)-7-amino-N-(5-fluoro-7-(piperazin-1-yl)chroman-3-yl)-3-methylthieno[2,3-b]pyrazine-6-carboxamide] | – | +++ (0.05-0.2 μM) |
| Cc1cnc2c(N)c(C(=O)N[C@@H]3CCc4cc(N5CCNC[C@H](O)C5)ccc4C3)sc2n1 (single isomer, unassigned) [Example 7-7] | – | + (>2 μM) |
| Cc1ccc2c(N)c(C(=O)N[C@@H]3CCc4c(ccc(N5CC6CCC(C5)N6)c4F)C3)sc2n1 (single isomer, unassigned) [Example 21-1] | ++ (0.2-2 μM) | – |
| Cc1ccc2c(N)c(C(=O)N[C@@H]3CCc4cc(N5CCNCC5)cc(F)c4C3)sc2n1 (single isomer, unassigned) [Example 11-12] | – | ++ (0.2-2 μM) |
| Cc1ccc2c(N)c(C(=O)N[C@@H]3COc4cc(N5CC6CCC(C5)N6)c(F)c(F)c4C3)sc2n1 [Example 13-4, N-((3S)-7-(3,8-diazabicyclo[3.2.1]octan-3-yl)-5,6-difluorochroman-3-yl)-3-amino-6-methylthieno[2,3-b]pyridine-2-carboxamide] | ++++ (0.001-0.05 μM) | – |
| Cc1cc(C(F)(F)F)c2c(N)c(C(=O)N[C@H]3COc4cc(N5CCNCC5)cc(F)c4C3)sc2n1 [Example 10-14, (R)-3-amino-N-(5-fluoro-7-(piperazin-1-yl)chroman-3-yl)-6-methyl-4-(trifluoromethyl)thieno[2,3-b]pyridine-2-carboxamide] | – | ++ (0.2-2 μM) |
| Cc1ccc2c(N)c(C(=O)N[C@H]3COc4cc(O[C@@H]5COC6(CNC6)C5)ccc4C3)sc2n1 (single isomer, unassigned) [Example 9-1] | – | +++ (0.05-0.2 μM) |
| Cc1ccc2c(N)c(C(=O)N[C@@H]3CCc4cc(N5C6CNCC5C6)ccc4C3)sc2n1 (single isomer, unassigned) [Example 11-36] | ++ (0.2-2 μM) | – |
| Cc1ccc2c(N)c(C(=O)N[C@@H]3CCc4cc(N5CC6CCC(C5)N6)c(F)cc4C3)sc2n1 (single isomer, unassigned) [Example 21-3] | ++++ (0.001-0.05 μM) | – |
| Cc1ccc2c(N)c(C(=O)N[C@H]3COc4c(F)c(N5CC6CCC(C5)N6)cc(F)c4C3)sc2n1 (single isomer, unassigned) [Example 13-1] | ++++ (0.001-0.05 μM) | – |
| COc1ccc2c(N)c(C(=O)N[C@H]3COc4cc(N5CCNCC5)cc(F)c4C3)sc2n1 [Example 10-11, (R)-3-amino-N-(5-fluoro-7-(piperazin-1-yl)chroman-3-yl)-6-methoxythieno[2,3-b]pyridine-2-carboxamide] | – | ++ (0.2-2 μM) |
| Cc1ccc2c(N)c(C(=O)N[C@H]3COc4cc(N5CC6CNCC(C5)O6)cc(F)c4C3)sc2n1 [Example 10-6, N-((3R)-7-(9-oxa-3,7-diazabicyclo[3.3.1]nonan-3-yl)-5-fluorochroman-3-yl)-3-amino-6-methylthieno[2,3-b]pyridine-2-carboxamide] | – | ++++ (0.001-0.05 μM) |
| Cc1ccc2c(N)c(C(=O)N[C@H]3CCc4c(ccc(N5CCNCC5)c4F)C3)sc2n1 (single isomer, unassigned) [Example 21-6] | ++ (0.2-2 μM) | – |
| CCn1ccc2cc(C(=O)N[C@H]3CCc4cc(N5CC6CCC(C5)N6)ccc4C3)nnc21 (single isomer, unassigned) [Example 11-24] | – | + (>2 μM) |
| Cc1cnc2c(N)c(C(=O)N[C@@H]3CCc4cc(N5CCNC[C@@H](O)C5)ccc4C3)sc2n1 (single isomer, unassigned) [Example 7-5] | – | ++ (0.2-2 μM) |
| Cc1ccc2c(N)c(C(=O)N[C@H]3COc4cc(N5CC6CCC(C5)N6)c(F)c(F)c4C3)sc2n1 [Example 13-3, N-((3R)-7-(3,8-diazabicyclo[3.2.1]octan-3-yl)-5,6-difluorochroman-3-yl)-3-amino-6-methylthieno[2,3-b]pyridine-2-carboxamide] | + (>2 μM) | – |
| Cc1ccc2c(N)c(C(=O)N[C@H]3CCc4c(ccc(N5CC6CCC(C5)N6)c4F)C3)sc2n1 (single isomer, unassigned) [Example 21-2] | ++ (0.2-2 μM) | – |
| Cc1nc2sc(C(=O)N[C@H]3CCc4cc(N5CC6CCC(C5)N6)ccc4C3)c(N)c2s1 (single isomer, unassigned) [Example 12-1] | + (>2 μM) | – |
| Cc1cnc2c(N)c(C(=O)N[C@H]3COc4cc(N5CC6CC(C5)N6)cc(F)c4C3)sc2n1 [Example 10-8, N-((3R)-7-(3,6-diazabicyclo[3.1.1]heptan-3-yl)-5-fluorochroman-3-yl)-7-amino-3-methylthieno[2,3-b]pyrazine-6-carboxamide] | – | +++ (0.05-0.2 μM) |
| Cc1cnc2c(N)c(C(=O)N[C@H]3CCc4cc(N5CC6CCC(C5)N6)ccc4C3)sc2n1 (single isomer, unassigned) [Example 11-7] | – | ++ (0.2-2 μM) |
| Cc1ccc2c(N)c(C(=O)N[C@@H]3COc4c(F)c(N5CC6CCC(C5)N6)cc(F)c4C3)sc2n1 (single isomer, unassigned) [Example 13-2] | + (>2 μM) | – |
| Cc1ccc2c(N)c(C(=O)N[C@H]3COc4cc(C5(F)CCNCC5)ccc4C3)sc2n1 [Example 8-1, (R)-3-Amino-N-(7-(4-fluoropiperidin-4-yl)chroman-3-yl)-6-methylthieno[2,3-b]pyridine-2-carboxamide] | – | ++++ (0.001-0.05 μM) |
| Cc1ccc2c(N)c(C(=O)N[C@H]3COc4c(ccc(N5CCNCC5)c4Cl)C3)sc2n1 [Example 13_7, (R)-3-amino-N-(8-chloro-7-(piperazin-1-yl)chroman-3-yl)-6-methylthieno[2,3-b]pyridine-2-carboxamide] | +++ (0.05-0.2 μM) | – |
| Cc1ccc2c(N)c(C(=O)N[C@H]3CCc4cc(N5CC6CCC(C5)N6)c(F)cc4C3)sc2n1 (single isomer, unassigned) [Example 21-4] | ++ (0.2-2 μM) | – |
| Cc1cnc2c(N)c(C(=O)N[C@@H]3CCc4cc(N5CC6CCC(C5)N6)ccc4C3)sc2n1 (single isomer, unassigned) [Example 11-8] | – | + (>2 μM) |

— patent US11524966B1 (Valo Early Discovery, Inc., priority 2017, dated 2022)
